US10919896B2, “Preparation and uses of pyrimidinone derivatives” (Cancer Research Technology Limited, priority 2016, dated 2021)

Key:
Cdc7/Dbf4 = Cdc7/Dbf4 (Homo sapiens, UniProt O00311); experiment: Cdc7 Biochemical Assay Method 3: Cdc7/Dbf4 Enzyme TR-FRET Assay measuring pS40MCM2; details: 1 μM ATP, read-out: Biochemical Method 3 (pIC50) (converted)
Summary of the method: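 2.5 nM Cdc7/Dbf4 incubated with 100 nM biotinylated MCM2-derived peptide and 1 μM ATP, 120 minutes at 25° C. Phospho-S40 detected by TR-FRET using anti-pS40 Mcm2 antibody, terbium anti-rabbit secondary and streptavidin-Alexa Fluor488.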

[1] = system: Cdc7 (pS40MCM2 levels in HCT116 cells); experiment: Cdc7 Cell Pharmacodynamics Assay Method 2A: pS40MCM2 levels in HCT116 cells, 6 hours; assay type: cell-based; details: Homo sapiens, HCT-116, read-out: Biomarker Method 2A (pEC50) (converted)
From the text: (§1) This protocol describes a method to investigate the inhibition of Cdc7 activity by measuring pS40MCM2 levels in cells, after treatment with compounds.
(§2) • HCT116 cells (ATCC, #CCL-247) • McCoys 5A with L-glutamine (Cellgro, #10-050-CV) • 10% FCS (Cellgro, #35-010-CV) • D-PBS without CaCl2 and MgCl2 (Cellgro, #21-031-CV) • Trypsin/EDTA (Cellgro, #25-052-CL) • BSA (Calbiochem, 126593) • Cell Extraction Buffer (Invitrogen FNN0011) • Protease inhibitor cocktail (Sigma P-2714) • PMSF 0.3M stock in DMSO (Sigma P7626) • Antibody-rabbit pMCM2 Ser40 (Abcam, AB133243) • Antibody-goat MCM2 (Bethyl #A300-122A) • Antibody-goat Anti Rabbit IgG HRP (Thermo, 31462) • SuperSignal ELISA Pico Chemiluminescent Substrate (Perbio Science UK Ltd 37069) • 10×PBS (Growcells, MRGF-6236) • Triton X100 (Sigma, P-T8787) • DMSO (Fisher, D128-1) • 2-Propanol (J. T. Baker, 9095-03) Method • Seed 1×10^6 HCT116 cells into each of two 175 cm^2 flask containing 30 mL Cell Growth Media and incubate at 37° C., 5% CO2 for 3 days. • Harvest the cells from one T175 cm^2 flask and count. • Dilute with Cell Growth Media to a cell density of 2×10^5. Dispense 100 μL to each well (20,000 HCT116 cells/well) of TC treated 96-well plate(s). • Allow cells to settle overnight in incubator set at 37° C. and 5% CO2. • Cell treatment: Transfer 0.25 μL/well from the compound plate to the wells of the cell plate(s). This is a 1:400 dilution of compound in the assay. • Once all cells are treated place the cells back to the incubator and incubate for either 6 hours (Method 2A) or 18 hours (Method 2B). • Dilute the capture antibody (total MCM2#A300-122A) 1 in 250 in the required volume of PBS (5 mL per assay plate, plus 5 mL for dead volume) and add 50 μL to each well of a Hybond plate except wells A12 & B12. Seal the plate and incubate at room temperature for a minimum of 2 hours. • Defrost aliquot of Invitrogen Cell Extraction Buffer (FNN0011) on ice and supplement with appropriate volume of both Sigma protease inhibitor cocktail (P-2714) and PMSF (final conc 1 mM from a 1 M stock in DMSO). • After the 6 hour or 18 hour cell treatment time, tap out the media from the assay plates and place them in the −70° C. freezer for at least 5 minutes. • Flick out the remaining liquid in the previously prepared capture Ab plate(s) and add 200 μL 2% BSA per well. Incubate for 1 hour at room temperature. • Remove plates from freezer and add 20 μL of ice cold complete lysis buffer. Incubate cells for 30 minutes at 4° C. • Add 30 μL per well 2% BSA • At the end of the 1 hour incubation, wash the Capture/ELISA plate(s) with Wash Buffer on the BioTek plate washer. • Transfer 40 μL per well of the lysis plate(s) to the same wells in the Capture/ELISA plate. Incubate cells overnight at 4° C. • At the end of the overnight incubation, wash the ELISA plate(s) with Wash Buffer on BioTek plate washer. • Prepare Detection Antibody Buffer and dispense 50 μL to all wells of ELISA plate(s) except wells G1 & H1. Cover plate and incubate at room temperature for 2 hours with gentle shaking. • At the end of the 2 hour incubation, wash the ELISA plate(s) with Wash Buffer on the BioTek plate washer. • Prepare the Conjugated Antibody Buffer and dispense 50 μL to all wells of ELISA plate(s). • Cover the plate and incubate at room temperature for 1 hour with gentle shaking. • At the end of the 1 hour incubation, wash the ELISA plate(s) with Wash Buffer on the BioTek plate washer. • Prepare Substrate Buffer and dispense 50 μL to all wells of ELISA plate(s). • Incubate for a minimum of 10 minutes and read plates on the EnVision 2100 Multilabel Reader (Mirror: Luminescence (404) & Luminescence 700 (212); Measurement Height: 6.5 mm; Measurement Time: 0.2 s). Method 3

[2] = system: Cdc7 (pS40MCM2 levels in HCT116 cells); experiment: Cdc7 Cell Pharmacodynamics Assay Method 2B: pS40MCM2 levels in HCT116 cells, 18 hours; assay type: cell-based; details: Homo sapiens, HCT-116, read-out: Biomarker Method 2B (pEC50) (converted)
From the text: as §1, §2

[3] = system: Cdc7 (pS53MCM2 levels in SW48 cells); experiment: Cdc7 Cell Pharmacodynamics Assay Method 3: pS53MCM2 levels in SW48 cells, 6 hours; assay type: cell-based; details: Homo sapiens, SW48, 6 h, read-out: Biomarker Method 3 (pEC50) (converted)
From the text: This protocol describes a method to investigate the inhibition of Cdc7 activity by measuring pS53MCM2 levels in cells, after treatment with compounds.
• SW48 cells • RPMI 1640 (Sigma, R5886) • 10% FCS (Sera Laboratories International Ltd, EU000F Batch:108005) • 100× L-Glutamine (Invitrogen, 25030-024) • D-Glucose Solution (10%) (Sigma, G8644) • HEPES Buffer Solution (Sigma, 83264) • Sodium Pyruvate (Sigma, S8636) • PBS (Fisger, BP399-4) • Trypsin/EDTA (Invitrogen 25300-054) • 2% BSA in PBS • Cell Extraction Buffer (Invitrogen FNN0011) • Protease inhibitor cocktail (Sigma P-2714) • PMSF 0.3M stock in DMSO (Sigma P7626) • Antibody-rabbit pMCM2 Ser53 (Bethyl #A300-756A) • Antibody-goat MCM2 (Bethyl #A300-122A) • Antibody-goat Anti Rabbit IgG HRP (Perbio Science UK Ltd 31462) • SuperSignal ELISA Pico Chemiluminescent Substrate (Perbio Science UK Ltd 37070) Method • Plate 30,000 SW48 cells per well in standard TC treated 96 well plate in 100 μL complete RPMI 1640 medium. • Allow cells to settle overnight in incubator set at 37° C. and 5% CO2. • Cell treatment: prepare a 384 well plate containing 80 μl PBS/well. The PBS should be at room temperature—to be referred to as intermediate plate. Transfer 2 μL of compound from mother plate to intermediate (daughter plate) 1:40 dilution, then 5 μL intermediate to cell (daughter) plate. • Once all cells are treated place the cells back to the incubator and incubate for 6 hours. • Dilute the capture antibody (total MCM2#A300-122A) 1 in 250 in the required volume of PBS (5 mL per assay plate, plus 5 mL for dead volume) and add 50 μL to each well of a Hybond plate. Seal the plate and incubate at room temperature for a minimum of 2 hours. • Defrost aliquot of Invitrogen Cell Extraction Buffer (FNN0011) on ice and supplement with appropriate volume of both Sigma protease inhibitor cocktail (P-2714) and PMSF (final conc 1 mM from a 1 M stock in DMSO). • After the 6 hour cell treatment time, tap out the media from the assay plates and place them in the −80° C. freezer for at least 5 minutes. • Remove plates from freezer and add 20 μL of ice cold complete lysis buffer, with the multidrop. Incubate cells for 30 minutes at 4° C. • Add 80 μL per well 2% BSA. • Flick out the remaining liquid from the capture plate and transfer 80 μL from the lysis plate to the same wells in the capture/ELISA plate, using the Biomek. Cover with plate seal and incubate plates overnight at 4° C. • Wash plates with PBS, remove any residual remaining liquid and add 50 μL per well of pMCM2 Ser53 antibody (#A300-756A) diluted 1 in 100 in 2% BSA. Cover plate and incubate at room temperature for 2 hours with gentle shaking. • Wash plates with PBS, remove any residual remaining liquid and Incubate with 50 μL goat anti rabbit antibody (1 in 800 dilution in 2% BSA), for 1 hour at room temperature. • Wash plates with PBS, remove any residual remaining liquid and add 50 μL mixed SuperSignal Pico substrate. • Incubate each plate for 5 minutes at room temperature shielding the plates from direct light (with a cover plate). Read plates with the luminescent detection.

Cdc7/Dbf4, sequence (O00311 whole entry): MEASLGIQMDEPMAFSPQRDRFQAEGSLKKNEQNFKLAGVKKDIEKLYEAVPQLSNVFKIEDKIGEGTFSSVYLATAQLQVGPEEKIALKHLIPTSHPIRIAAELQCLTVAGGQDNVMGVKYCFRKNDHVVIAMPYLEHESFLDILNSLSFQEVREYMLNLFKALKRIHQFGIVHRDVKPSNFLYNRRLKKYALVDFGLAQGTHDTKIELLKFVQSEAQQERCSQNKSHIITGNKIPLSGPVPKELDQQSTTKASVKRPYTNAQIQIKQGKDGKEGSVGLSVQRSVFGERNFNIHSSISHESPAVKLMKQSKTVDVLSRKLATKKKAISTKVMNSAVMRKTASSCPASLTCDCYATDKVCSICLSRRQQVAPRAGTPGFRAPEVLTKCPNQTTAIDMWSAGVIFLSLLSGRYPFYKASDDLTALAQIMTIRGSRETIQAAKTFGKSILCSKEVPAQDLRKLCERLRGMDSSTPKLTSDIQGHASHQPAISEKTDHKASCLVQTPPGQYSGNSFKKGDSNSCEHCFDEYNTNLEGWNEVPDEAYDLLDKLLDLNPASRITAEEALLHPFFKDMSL
Cdc7/Dbf4, sequence (Q9UBU7 whole entry partner): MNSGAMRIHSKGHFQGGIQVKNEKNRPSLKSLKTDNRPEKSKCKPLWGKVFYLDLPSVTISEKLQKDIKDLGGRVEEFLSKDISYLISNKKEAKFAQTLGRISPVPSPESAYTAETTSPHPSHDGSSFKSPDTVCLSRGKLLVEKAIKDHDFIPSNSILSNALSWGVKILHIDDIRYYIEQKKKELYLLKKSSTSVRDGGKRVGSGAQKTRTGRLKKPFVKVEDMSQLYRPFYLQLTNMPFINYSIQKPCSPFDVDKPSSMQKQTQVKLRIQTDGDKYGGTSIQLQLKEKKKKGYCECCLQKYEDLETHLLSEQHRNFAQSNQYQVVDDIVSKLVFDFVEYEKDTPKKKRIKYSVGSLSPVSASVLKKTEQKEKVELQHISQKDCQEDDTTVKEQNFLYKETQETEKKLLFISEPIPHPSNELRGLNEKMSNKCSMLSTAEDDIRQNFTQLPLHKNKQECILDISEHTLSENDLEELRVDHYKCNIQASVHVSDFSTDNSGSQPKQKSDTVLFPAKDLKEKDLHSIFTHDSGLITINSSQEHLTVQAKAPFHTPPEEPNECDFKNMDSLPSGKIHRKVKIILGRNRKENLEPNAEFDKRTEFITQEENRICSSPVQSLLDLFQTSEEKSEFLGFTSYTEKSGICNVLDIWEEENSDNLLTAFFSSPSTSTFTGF

| SMILES | IC50 (Cdc7/Dbf4) | EC50 [1] | EC50 [2] | EC50 [3] |
| --- | --- | --- | --- | --- |
| NC1CN(c2nc(-c3ccnc(F)c3)[nH]c(=O)c2Cl)CCC1F (mixture of isomers) [Compound 252] | 0.617 nM | 38 nM | – | – |
| N[C@@H]1CCCCN(c2nc(-c3ccnc(F)c3)[nH]c(=O)c2Cl)C1 [Compound 183, 4-[(3R)-3-aminoazepan-1-yl]-5-chloro-2-(2-fluoro-4-pyridyl)-1H-pyrimidin-6-one 2,2,2-trifluoroacetic acid] | 0.513 nM | 148 nM | – | – |
| N[C@H]1CCCCN(c2nc(-c3ccnc(F)c3)[nH]c(=O)c2Cl)C1 [Compound 188] | 1.74 nM | 170 nM | – | – |
| O=c1[nH]c(-c2ccnc(F)c2)nc(N2CCNCC(O)C2)c1Cl (stereo not shown) [Compound 190] | 0.708 nM | 741 nM | – | – |
| O=c1[nH]c(-c2ccnc(F)c2)nc(N2C3CCC2COC3)c1Cl [Compound 192] | 0.813 nM | 89.1 nM | 49 nM | – |
| CN[C@@H]1CCCN(c2nc(-c3ccnc(F)c3)[nH]c(=O)c2Cl)C1 [Compound 196] | 1.91 nM | 72.4 nM | – | – |
| CN[C@H]1CCCN(c2nc(-c3ccnc(F)c3)[nH]c(=O)c2Cl)C1 [Compound 197] | 2.4 nM | 316 nM | – | – |
| O=C1CCCN(c2nc(-c3ccnc(F)c3)[nH]c(=O)c2Cl)CC1 [Compound 203] | 2.95 nM | 363 nM | – | – |
| CC[C@@H]1CN(c2nc(-c3ccnc(F)c3)[nH]c(=O)c2Cl)CCO1 [Compound 205] | 1.41 nM | 275 nM | – | – |
| O=c1[nH]c(-c2ccnc(F)c2)nc(N2CCC3CCNCC32)c1Cl (stereo not shown) [Compound 221] | 2.88 nM | 1620 nM | 562 nM | – |
| O=c1[nH]c(-c2ccnc(F)c2)nc(N2CCC3NCCCC32)c1Cl (stereo not shown) [Compound 223] | 2.88 nM | 56.2 nM | 47.9 nM | – |
| CC(=O)NC1CCN(c2nc(-c3ccnc(F)c3)[nH]c(=O)c2Cl)CC1 [Compound 232] | 1.02 nM | 2000 nM | 977 nM | – |
| O=C1CCN(c2nc(-c3ccnc(F)c3)[nH]c(=O)c2Cl)CC1 [Compound 234] | 1.38 nM | 38.9 nM | – | – |
| N[C@@H]1CN(c2nc(-c3ccnc(F)c3)[nH]c(=O)c2Cl)CC[C@H]1O [Compound 235] | 1.2 nM | 1120 nM | – | – |
| O=c1[nH]c(-c2ccnc(F)c2)nc(N2CCC3NCCC32)c1Cl (stereo not shown) [Compound 243] | 2 nM | 288 nM | – | – |
| C[C@H]1CNCCN1c1nc(-c2ccnc(F)c2)[nH]c(=O)c1Cl [Compound 326] | 0.49 nM | 40.7 nM | – | – |
| C[C@@H]1COCCN1c1nc(-c2ccnc(F)c2)[nH]c(=O)c1Cl [Compound 328] | 0.575 nM | 3.89 nM | – | – |
| C[C@H]1COCCN1c1nc(-c2ccnc(F)c2)[nH]c(=O)c1Cl [Compound 333] | 1.23 nM | 347 nM | 87.1 nM | – |
| O=c1[nH]c(-c2ccnc(F)c2)nc(N2C3CCCC2COC3)c1Cl [Compound 334] | 0.724 nM | 135 nM | 61.7 nM | – |
| CC1(C)COCCN1c1nc(-c2ccnc(F)c2)[nH]c(=O)c1Cl [Compound 339] | 0.479 nM | – | 10.7 nM | 110 nM |
| CC1(C)CNCCN1c1nc(-c2ccnc(F)c2)[nH]c(=O)c1Cl [Compound 358] | 1.15 nM | – | 2.45 nM | 89.1 nM |
| O=C1CNCCN(c2nc(-c3ccnc(F)c3)[nH]c(=O)c2Cl)C1 [Compound 412, 1-[5-chloro-2-(2-fluoro-4-pyridyl)-6-oxo-1H-pyrimidin-4-yl]-1,4-diazepan-6-one 2,2,2-trifluoroacetic acid] | 0.646 nM | 339 nM | – | – |
